Patent US20240166596A1, “SULFAMOYL BENZENE DERIVATIVES AND USES THEREOF” (AphioTx Inc., priority 2021, published 2024)

What was measured:
Panx1 channel = biological target: T1, Panx1 channel (Mus musculus, UniProt Q9JIP4); assay: YO-PRO-1 dye uptake assay in BV-2 microglia-like cells (BzATP stimulation); format: cell-based; settings: BV-2 cells
T1 construct: endogenous in cells; host or cells: BV-2 microglia-like cells
Experimental: After plating into 96 well plates, cell culture media was removed and BV-2 cells were incubated in extracellular solution (ECS) (140 mM NaCl, 4.5 mM KCl, 1.3 mM CaCl2, 10 mM HEPES, and 33 mM glucose; pH7.35, osmolarity 315 mOsm) containing YO-PRO-1 dye (2.5 μM, Invitrogen). After a 5 minute baseline recording, cells were stimulated with 3′-O-(4-benzoyl)benzoyl adenosine 5′-triphosphate (BzATP) (150 μM, Toronto Research Chemicals) and dye-uptake was recorded for 30 minutes. Cell viability was assessed immediately after the 30 minute recording by application of ionomycin (1 μM, Sigma). […] YO-PRO-1 fluorescent emission (491/509) was detected using a FilterMax F5 plate reader (Molecular Devices). Drugs used include (−)-norepinephrine (100 pM-1 μM, Sigma), probenecid (1 mM, Life Technologies), and Compound 1 (10 nM, Derksen et al). Drugs were bath applied in ECS containing YO-PRO-1 dye and incubated at 37° C. for 10 minutes prior to BzATP stimulation. Fluorescent emission at 30 minutes post-BzATP was calculated as an average of the entire imaging field as percent change from baseline, and responses at 30 minutes were averaged over multiple independent experiments. Individual traces of BV-2 YO-PRO-1 dye uptake were taken at 10 minute intervals and represent the average response of all BV-2 cells in the recorded view from a subset of experiments.
BV-2 microglia-like cells were maintained in DMEM (Gibco) containing 5% fetal bovine serum (Gibco) and 1% penicillin-streptomycin (Gibco) with 5% CO2.
The compounds tested were designed to more readily penetrate the blood brain barrier and were therefore predicted to require a lower dose to produce similar effects. Prior to testing the compounds in animals, the compounds were first tested in BV2 microglia-like cells using the YO-PRO-1 Dye Uptake Assay. By using this assay, Panx1 channel activity in response to BzATP stimulation of P2X7, an upstream receptor that causes Panx1 pore formation can be assessed. YO-PRO-1 is a large molecular weight dye that can only enter the cell through large pore ion channels such as Panx1, therefore its uptake correlates with Panx1 channel opening. BzATP stimulation causes a significant increase in YO-PRO-1 dye uptake in cells pre-treated with ECS and vehicle solution (0.1% DMSO) (FIG. 1, B).

C57BL/6 mice = assay: Conditioned place aversion (CPA) after naloxone-precipitated withdrawal; format: in vivo; settings: for CPA: 0.1 mg/kg i.p. as printed
Excerpt: Adult male C57BL/6 mice (7-14 weeks old) were used for conditioned place aversion experiments (CPA). Animals were group housed under reverse light-dark cycle with ad libitum access to food and water and were randomly allocated to different test groups. All procedures were approved by the University of Calgary and Washington University Animal Care Committees and are in accordance with the guidelines of the Canadian Council on Animal Care and the US National Institutes of Health Guide for the Care of Use of Laboratory Animals.
Place conditioning was performed in a custom-built clear plexiglass apparatus (28×28×19 cm) divided into two conditioning chambers distinct in tactile and visual cues. All locomotor behaviours were recorded using monochrome GigE cameras and quantified offline using EthoVision XT 11 software (Noldus). The CPA score was calculated by subtracting time spent in the conditioned chamber during baseline (pre-test) from time spent in the same chamber postconditioning. Mice were placed in a two-chamber conditioning apparatus and allowed free access to both chambers for 15 min to assess baseline preference. Mice were treated with escalating doses of morphine, control animals received equivalent volumes of 0.9% sterile saline. Two hours after the final morphine or saline injection on day 5, mice were injected with naloxone and confined to one side of the conditioning apparatus for 30 min. The conditioned place aversion (CPA) test occurred 1 and 7 days post-conditioning, where mice were allowed free access to the conditioning apparatus for 15 min. […]
Unpaired t tests were applied to compare differences between two groups, one-way ANOVA with Bonferroni post hoc tests were applied to compare differences between three or more groups. […] All data are expressed as mean±SEM. […] After assessing the normality of sample data using Shapiro-Wilk test, statistical significance was determined by two-way repeated-measures ANOVA followed by two-tailed Sidak post hoc test. All data were presented as mean±SEM and analyzed using GraphPad Prism 9 (GraphPad Software, Inc., California).

T1 sequence (Q9JIP4 whole entry): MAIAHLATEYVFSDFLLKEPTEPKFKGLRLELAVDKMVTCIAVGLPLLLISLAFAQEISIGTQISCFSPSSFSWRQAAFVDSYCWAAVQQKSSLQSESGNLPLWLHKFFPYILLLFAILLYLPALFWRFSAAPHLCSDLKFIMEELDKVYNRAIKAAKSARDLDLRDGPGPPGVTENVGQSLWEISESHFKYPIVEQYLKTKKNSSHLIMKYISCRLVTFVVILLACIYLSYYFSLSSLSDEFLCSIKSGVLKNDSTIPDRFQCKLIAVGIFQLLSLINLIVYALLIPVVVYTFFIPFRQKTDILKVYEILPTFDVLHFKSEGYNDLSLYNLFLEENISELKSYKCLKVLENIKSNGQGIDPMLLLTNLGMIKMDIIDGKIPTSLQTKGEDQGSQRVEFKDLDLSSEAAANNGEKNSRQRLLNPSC

## CCCN(CCC)S(=O)(=O)c1ccc(C(O)(C(F)(F)F)C(F)(F)F)cc1 [Compound 1, 4-(1,1,1,3,3,3-hexafluoro-2-hydroxypropan-2-yl)-N,N-dipropylbenzenesulfonamide]
Panx1 channel
  Potency at inhibiting Panx1 channel opening relative to probenecid: more potent than probenecid
Panx1 channel; Compound 1 10 nM vs probenecid 1 mM
  Concentration blocking Panx1 channel activity, fold lower than probenecid: 100,000 fold
Panx1 channel; Compound 1 10 nM, 10 min pre-treatment, BzATP 150 μM, 30 min
  Panx1 channel activity (BzATP-stimulated YO-PRO-1 dye uptake): significantly blocked
C57BL/6 mice; 1 day after naloxone-precipitated withdrawal
  CPA: significantly less CPA
C57BL/6 mice; 1 day and 7 days after naloxone-precipitated withdrawal
  CPA: significantly less CPA
C57BL/6 mice; 0.5 mg/kg i.p., morphine-dependent mice, vs vehicle
  CPA score (aversion to the naloxone-paired chamber): significant reduction in aversion
